Reference: ChEMBL document CHEMBL5357082, “Identification and Optimization of Small Molecule Pyrazolopyrimidine TLR7 Agonists for Applications in Immuno-oncology” (ACS Med Chem Lett, 2024)

Key:
Toll-like receptor 7 [1] = biological target: T1, Toll-like receptor 7 (Mus musculus, UniProt P58681); assay: Agonist activity at mouse TLR7
T1 sequence (P58681 whole entry): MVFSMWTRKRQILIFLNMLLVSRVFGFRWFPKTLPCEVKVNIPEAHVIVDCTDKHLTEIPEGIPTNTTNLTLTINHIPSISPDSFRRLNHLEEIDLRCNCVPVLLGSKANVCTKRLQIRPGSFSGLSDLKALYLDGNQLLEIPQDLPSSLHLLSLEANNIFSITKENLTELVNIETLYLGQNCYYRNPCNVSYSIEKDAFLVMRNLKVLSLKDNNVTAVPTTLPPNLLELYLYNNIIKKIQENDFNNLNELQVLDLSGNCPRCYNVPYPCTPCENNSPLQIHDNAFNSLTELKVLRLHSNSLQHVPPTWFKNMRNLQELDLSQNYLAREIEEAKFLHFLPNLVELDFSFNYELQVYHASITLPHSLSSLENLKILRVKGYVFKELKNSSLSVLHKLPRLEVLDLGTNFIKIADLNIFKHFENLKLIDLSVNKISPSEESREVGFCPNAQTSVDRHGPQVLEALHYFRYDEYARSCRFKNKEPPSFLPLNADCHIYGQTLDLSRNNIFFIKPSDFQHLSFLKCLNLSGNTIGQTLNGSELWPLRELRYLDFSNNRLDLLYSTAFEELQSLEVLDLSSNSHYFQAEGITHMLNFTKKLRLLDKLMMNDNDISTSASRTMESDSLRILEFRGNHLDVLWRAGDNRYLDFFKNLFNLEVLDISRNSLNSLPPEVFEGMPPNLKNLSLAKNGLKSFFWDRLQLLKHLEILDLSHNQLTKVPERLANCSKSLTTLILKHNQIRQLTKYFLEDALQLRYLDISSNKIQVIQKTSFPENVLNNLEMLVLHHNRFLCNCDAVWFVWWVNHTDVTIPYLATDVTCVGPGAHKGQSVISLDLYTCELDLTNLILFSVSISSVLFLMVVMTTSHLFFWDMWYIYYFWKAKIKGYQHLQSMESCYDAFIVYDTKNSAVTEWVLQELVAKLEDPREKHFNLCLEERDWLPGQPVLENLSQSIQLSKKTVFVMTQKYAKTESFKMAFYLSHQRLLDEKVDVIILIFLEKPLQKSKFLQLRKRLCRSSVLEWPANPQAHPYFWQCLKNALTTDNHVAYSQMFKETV

Cytochrome P450 2C8 = biological target: T2, Cytochrome P450 2C8 (Homo sapiens, UniProt P10632); assay: Inhibition of CYP2C8 (unknown origin); type: ADME
T2 sequence (P10632 whole entry): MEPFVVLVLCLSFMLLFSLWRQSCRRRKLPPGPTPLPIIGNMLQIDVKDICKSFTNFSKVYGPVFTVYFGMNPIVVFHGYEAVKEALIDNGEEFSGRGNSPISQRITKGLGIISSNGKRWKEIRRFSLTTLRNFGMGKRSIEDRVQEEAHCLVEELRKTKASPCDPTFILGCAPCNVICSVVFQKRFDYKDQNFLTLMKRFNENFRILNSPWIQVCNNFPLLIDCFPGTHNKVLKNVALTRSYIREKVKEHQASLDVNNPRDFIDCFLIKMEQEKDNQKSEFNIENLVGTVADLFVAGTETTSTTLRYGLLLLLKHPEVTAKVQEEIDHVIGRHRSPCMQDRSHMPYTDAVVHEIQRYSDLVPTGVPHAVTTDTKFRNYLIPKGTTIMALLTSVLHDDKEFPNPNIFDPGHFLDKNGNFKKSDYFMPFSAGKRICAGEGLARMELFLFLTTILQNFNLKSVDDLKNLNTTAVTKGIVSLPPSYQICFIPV

[2] = Metabolic stability in human liver microsomes assessed as compound remaining at 0.5 uM incubated for 10 mins in presence of NADPH by UV absorbance based assay; type: ADME, Microsome; conditions: read-out: Stability
Cytochrome P450 2D6 = Cytochrome P450 2D6 (Homo sapiens, UniProt P10635); assay: Inhibition of CYP2D6 (unknown origin); type: ADME
Cytochrome P450 2D6, sequence (P10635 whole entry): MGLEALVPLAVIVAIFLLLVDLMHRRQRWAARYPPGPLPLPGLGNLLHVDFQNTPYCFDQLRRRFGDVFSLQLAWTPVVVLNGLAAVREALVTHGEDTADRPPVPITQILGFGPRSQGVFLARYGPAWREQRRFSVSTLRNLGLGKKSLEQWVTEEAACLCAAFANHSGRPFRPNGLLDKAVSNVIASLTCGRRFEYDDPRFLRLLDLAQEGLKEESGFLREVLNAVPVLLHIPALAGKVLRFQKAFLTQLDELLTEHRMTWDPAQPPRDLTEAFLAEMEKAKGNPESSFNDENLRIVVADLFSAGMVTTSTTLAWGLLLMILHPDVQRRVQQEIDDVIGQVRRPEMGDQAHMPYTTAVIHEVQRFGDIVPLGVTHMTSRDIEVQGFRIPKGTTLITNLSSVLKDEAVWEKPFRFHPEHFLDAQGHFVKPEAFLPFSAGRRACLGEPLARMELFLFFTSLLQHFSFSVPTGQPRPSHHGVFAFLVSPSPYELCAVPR

Cytochrome P450 2C19 = Cytochrome P450 2C19 (Homo sapiens, UniProt P33261); assay: Inhibition of CYP2C19 (unknown origin); type: ADME
Cytochrome P450 2C19, sequence (P33261 whole entry): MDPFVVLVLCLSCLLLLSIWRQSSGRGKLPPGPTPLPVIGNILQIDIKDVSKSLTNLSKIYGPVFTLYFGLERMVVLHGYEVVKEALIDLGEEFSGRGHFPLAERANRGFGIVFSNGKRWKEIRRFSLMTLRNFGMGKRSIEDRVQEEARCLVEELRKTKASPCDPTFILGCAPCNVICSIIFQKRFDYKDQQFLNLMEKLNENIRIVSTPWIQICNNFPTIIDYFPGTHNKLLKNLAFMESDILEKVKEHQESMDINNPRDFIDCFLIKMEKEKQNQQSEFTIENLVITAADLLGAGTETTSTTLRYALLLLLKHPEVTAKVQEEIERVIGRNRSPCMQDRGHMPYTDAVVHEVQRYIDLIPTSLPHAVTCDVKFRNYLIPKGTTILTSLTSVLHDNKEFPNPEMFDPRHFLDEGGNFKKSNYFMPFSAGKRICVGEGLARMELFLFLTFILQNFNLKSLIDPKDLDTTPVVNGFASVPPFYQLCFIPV

Cytochrome P450 2C9 = Cytochrome P450 2C9 (Homo sapiens, UniProt P11712); assay: Inhibition of CYP2C9 (unknown origin); type: ADME
Cytochrome P450 2C9, sequence (P11712 whole entry): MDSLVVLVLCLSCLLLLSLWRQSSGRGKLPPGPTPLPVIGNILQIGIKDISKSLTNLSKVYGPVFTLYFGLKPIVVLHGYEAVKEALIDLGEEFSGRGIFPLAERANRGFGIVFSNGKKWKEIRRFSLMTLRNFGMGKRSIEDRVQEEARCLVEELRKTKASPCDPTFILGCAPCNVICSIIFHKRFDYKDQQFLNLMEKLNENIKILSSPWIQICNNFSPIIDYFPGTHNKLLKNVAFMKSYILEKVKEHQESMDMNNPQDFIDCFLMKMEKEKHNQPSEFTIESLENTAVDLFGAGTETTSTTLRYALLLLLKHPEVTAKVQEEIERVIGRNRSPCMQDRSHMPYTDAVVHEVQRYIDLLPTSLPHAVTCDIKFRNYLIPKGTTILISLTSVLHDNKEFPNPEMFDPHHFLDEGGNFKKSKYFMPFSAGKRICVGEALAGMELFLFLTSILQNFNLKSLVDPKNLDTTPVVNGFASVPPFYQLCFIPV

[3] = biological target: Voltage-gated inwardly rectifying potassium channel KCNH2 (Homo sapiens, UniProt Q12809); assay: Inhibition of hERG; type: toxicity
Voltage-gated inwardly rectifying potassium channel KCNH2, sequence (Q12809 whole entry): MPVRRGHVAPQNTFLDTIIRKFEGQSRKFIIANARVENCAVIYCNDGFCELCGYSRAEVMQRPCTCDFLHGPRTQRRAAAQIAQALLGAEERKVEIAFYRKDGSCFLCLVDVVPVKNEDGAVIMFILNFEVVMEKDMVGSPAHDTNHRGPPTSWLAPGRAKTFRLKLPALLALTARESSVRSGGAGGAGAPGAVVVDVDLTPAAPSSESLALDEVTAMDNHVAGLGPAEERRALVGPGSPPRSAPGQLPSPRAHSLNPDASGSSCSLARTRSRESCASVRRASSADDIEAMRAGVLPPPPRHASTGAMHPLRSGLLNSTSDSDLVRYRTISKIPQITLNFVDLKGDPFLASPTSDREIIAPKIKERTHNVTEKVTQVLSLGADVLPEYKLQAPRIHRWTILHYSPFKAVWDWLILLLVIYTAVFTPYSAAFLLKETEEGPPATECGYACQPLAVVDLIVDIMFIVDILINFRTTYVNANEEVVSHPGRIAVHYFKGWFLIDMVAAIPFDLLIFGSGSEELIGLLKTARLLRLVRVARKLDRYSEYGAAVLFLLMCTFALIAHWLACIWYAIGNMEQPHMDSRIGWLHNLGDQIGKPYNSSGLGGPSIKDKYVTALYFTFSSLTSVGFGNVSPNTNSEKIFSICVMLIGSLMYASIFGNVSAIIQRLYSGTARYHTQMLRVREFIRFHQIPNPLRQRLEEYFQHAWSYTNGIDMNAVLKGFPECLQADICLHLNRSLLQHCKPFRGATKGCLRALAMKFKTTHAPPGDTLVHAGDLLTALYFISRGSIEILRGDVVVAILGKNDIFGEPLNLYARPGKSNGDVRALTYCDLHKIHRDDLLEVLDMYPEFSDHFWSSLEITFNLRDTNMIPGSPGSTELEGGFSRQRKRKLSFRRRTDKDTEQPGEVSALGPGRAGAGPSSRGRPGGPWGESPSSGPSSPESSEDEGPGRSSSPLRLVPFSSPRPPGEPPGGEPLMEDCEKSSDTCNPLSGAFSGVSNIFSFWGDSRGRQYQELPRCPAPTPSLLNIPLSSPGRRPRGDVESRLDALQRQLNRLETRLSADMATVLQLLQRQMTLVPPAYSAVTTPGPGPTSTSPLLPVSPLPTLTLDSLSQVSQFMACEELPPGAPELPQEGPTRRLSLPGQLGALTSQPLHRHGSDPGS

Cytochrome P450 3A4 [4] = biological target: T3, Cytochrome P450 3A4 (Homo sapiens, UniProt P08684); assay: Inhibition of CYP3A4 (unknown origin) using BFC as substrate; type: ADME
T3 sequence (P08684 whole entry): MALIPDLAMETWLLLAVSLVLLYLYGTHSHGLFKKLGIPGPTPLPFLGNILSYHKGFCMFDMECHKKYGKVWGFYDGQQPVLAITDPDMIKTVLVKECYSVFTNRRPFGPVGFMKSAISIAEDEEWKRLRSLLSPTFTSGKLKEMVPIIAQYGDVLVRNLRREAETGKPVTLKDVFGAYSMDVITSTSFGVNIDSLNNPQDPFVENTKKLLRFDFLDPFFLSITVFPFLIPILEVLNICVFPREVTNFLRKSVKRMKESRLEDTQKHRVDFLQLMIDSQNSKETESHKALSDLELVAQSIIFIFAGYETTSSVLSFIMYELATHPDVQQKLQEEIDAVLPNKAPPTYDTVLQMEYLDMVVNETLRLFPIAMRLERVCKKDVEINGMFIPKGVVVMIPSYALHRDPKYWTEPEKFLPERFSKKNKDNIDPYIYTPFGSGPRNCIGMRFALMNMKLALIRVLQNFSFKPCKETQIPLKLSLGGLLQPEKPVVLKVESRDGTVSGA

Cytochrome P450 3A4 [5] = biological target: T3, Cytochrome P450 3A4; assay: Inhibition of CYP3A4 (unknown origin) using BFC as substrate preincubated with compound followed by substrate addition at 30 mins; type: ADME
[6] = Metabolic stability in mouse liver microsomes assessed as compound remaining at 0.5 uM incubated for 10 mins in presence of NADPH by UV absorbance based assay; type: ADME, Microsome; conditions: read-out: Stability
Cytochrome P450 1A2 = biological target: T4, Cytochrome P450 1A2 (Homo sapiens, UniProt P05177); assay: Inhibition of CYP1A2 (unknown origin); type: ADME
T4 sequence (P05177 whole entry): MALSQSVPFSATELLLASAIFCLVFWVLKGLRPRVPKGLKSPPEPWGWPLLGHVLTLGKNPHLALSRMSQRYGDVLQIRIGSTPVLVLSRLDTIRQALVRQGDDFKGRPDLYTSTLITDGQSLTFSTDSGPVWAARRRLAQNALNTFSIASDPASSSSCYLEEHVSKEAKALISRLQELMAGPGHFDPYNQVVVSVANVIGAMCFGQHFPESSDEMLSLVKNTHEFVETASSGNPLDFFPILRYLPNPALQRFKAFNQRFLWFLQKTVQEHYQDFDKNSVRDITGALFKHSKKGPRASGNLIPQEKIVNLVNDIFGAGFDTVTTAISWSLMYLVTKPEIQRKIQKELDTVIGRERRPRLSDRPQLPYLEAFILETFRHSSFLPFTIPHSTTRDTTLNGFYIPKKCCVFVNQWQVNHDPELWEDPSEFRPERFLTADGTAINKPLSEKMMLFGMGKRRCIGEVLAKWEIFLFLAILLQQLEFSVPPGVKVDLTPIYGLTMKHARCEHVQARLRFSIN

[7] = Cytotoxicity against PHA-activated T-cells (unknown origin) assessed as inhibition of IL-2 induced cell proliferation measured after 72 hrs by MTS assay; type: toxicity, cell-based
Cytochrome P450 3A4 [8] = biological target: T3, Cytochrome P450 3A4; assay: Inhibition of CYP3A4 (unknown origin) using BFC as substrate preincubated with compound followed by substrate addition at 5 mins; type: ADME
Toll-like receptor 7 [9] = biological target: T5, Toll-like receptor 7 (Homo sapiens, UniProt Q9NYK1); assay: Agonist activity at human TLR7 in HEK-Blue hTLR7 cells harboring SEAP reporter transgene incubated for 18 hrs by quanti-blue reagent based assay; type: cell-based
T5 sequence (Q9NYK1 whole entry): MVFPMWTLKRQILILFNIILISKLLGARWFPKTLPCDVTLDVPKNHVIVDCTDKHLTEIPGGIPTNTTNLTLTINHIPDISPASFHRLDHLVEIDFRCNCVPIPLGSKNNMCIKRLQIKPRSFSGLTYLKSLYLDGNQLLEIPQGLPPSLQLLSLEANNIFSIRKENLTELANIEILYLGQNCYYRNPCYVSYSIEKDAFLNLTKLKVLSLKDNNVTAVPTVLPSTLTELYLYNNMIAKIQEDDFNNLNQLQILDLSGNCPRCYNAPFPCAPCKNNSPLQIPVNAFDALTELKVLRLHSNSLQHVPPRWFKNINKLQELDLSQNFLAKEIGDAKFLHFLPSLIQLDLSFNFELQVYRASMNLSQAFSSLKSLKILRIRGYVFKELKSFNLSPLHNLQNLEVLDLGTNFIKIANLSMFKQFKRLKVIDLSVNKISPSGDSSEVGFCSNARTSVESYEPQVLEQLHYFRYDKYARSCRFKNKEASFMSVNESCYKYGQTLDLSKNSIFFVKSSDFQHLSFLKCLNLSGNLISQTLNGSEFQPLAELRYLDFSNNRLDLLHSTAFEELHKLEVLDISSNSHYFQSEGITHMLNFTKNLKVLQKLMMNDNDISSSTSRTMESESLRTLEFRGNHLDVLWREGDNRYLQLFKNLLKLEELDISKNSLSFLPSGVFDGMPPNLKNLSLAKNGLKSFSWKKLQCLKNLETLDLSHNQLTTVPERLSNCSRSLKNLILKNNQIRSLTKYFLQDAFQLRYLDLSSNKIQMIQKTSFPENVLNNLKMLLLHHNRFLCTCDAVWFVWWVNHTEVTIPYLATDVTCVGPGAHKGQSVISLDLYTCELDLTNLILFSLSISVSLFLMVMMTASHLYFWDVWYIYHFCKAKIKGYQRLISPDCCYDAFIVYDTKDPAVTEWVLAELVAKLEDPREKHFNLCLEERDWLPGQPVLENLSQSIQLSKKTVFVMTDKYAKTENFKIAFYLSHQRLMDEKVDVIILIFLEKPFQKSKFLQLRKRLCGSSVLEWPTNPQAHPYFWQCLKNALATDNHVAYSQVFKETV

CCC[C@@H](CCO)Nc1nc(N)nc2cnn(Cc3ncc(C4=CC5(CCN(C6CCOCC6)CC5)C4)cc3OC)c12
EC50 (Toll-like receptor 7 [1]): 0.127 µM | IC50 (Cytochrome P450 2C8): > 20 µM | remaining at 10 min, 0.5 µM [2]: 75% | IC50 (Cytochrome P450 2D6): > 20 µM | IC50 (Cytochrome P450 2C19): > 20 µM | IC50 (Cytochrome P450 2C9): > 20 µM | IC50 [3]: > 100 µM | IC50 (Cytochrome P450 3A4 [4]): > 20 µM | IC50 (Cytochrome P450 3A4 [5]): > 20 µM | remaining at 10 min, 0.5 µM [6]: 86% | IC50 (Cytochrome P450 1A2): > 20 µM | IC50 at 72 h [7]: 7.2 µM | IC50 (Cytochrome P450 3A4 [8]): > 20 µM

CCCCNc1nc(N)nc2c(C)nn(Cc3ncc(C4CCNCC4)cc3OC)c12
EC50 (Toll-like receptor 7 [1]): > 5 µM | IC50 (Cytochrome P450 2C8): > 20 µM | remaining at 10 min, 0.5 µM [2]: 95% | IC50 (Cytochrome P450 2D6): > 20 µM | IC50 (Cytochrome P450 2C19): > 20 µM | IC50 (Cytochrome P450 2C9): > 20 µM | IC50 [3]: > 50 µM | IC50 (Cytochrome P450 3A4 [4]): 1 µM | IC50 (Cytochrome P450 3A4 [5]): 1 µM | remaining at 10 min, 0.5 µM [6]: 71% | IC50 (Cytochrome P450 1A2): > 20 µM | IC50 at 72 h [7]: > 25 µM | IC50 (Cytochrome P450 3A4 [8]): 1.21 µM

CCC[C@@H](CCO)Nc1nc(N)nc2cnn(Cc3ncc(C4=CC5(CCN(C(C)C)CC5)C4)cc3OC)c12
EC50 (Toll-like receptor 7 [1]): 0.159 µM | IC50 (Cytochrome P450 2C8): > 20 µM | remaining at 10 min, 0.5 µM [2]: 72% | IC50 (Cytochrome P450 2D6): > 20 µM | IC50 (Cytochrome P450 2C19): > 20 µM | IC50 (Cytochrome P450 2C9): > 20 µM | IC50 [3]: 62 µM | IC50 (Cytochrome P450 3A4 [4]): > 20 µM | IC50 (Cytochrome P450 3A4 [5]): > 20 µM | remaining at 10 min, 0.5 µM [6]: 83% | IC50 (Cytochrome P450 1A2): > 20 µM | IC50 at 72 h [7]: 16 µM | IC50 (Cytochrome P450 3A4 [8]): > 20 µM

CCC[C@@H](CCO)Nc1nc(N)nc2cnn(Cc3ncc(C4CCN(CCO)CC4)cc3OC)c12
EC50 (Toll-like receptor 7 [1]): 0.124 µM | IC50 (Cytochrome P450 2C8): > 20 µM | remaining at 10 min, 0.5 µM [2]: 93% | IC50 (Cytochrome P450 2D6): > 20 µM | IC50 (Cytochrome P450 2C19): > 20 µM | IC50 (Cytochrome P450 2C9): > 20 µM | IC50 [3]: > 50 µM | IC50 (Cytochrome P450 3A4 [4]): > 20 µM | IC50 (Cytochrome P450 3A4 [5]): > 20 µM | remaining at 10 min, 0.5 µM [6]: 100% | IC50 (Cytochrome P450 1A2): > 20 µM | IC50 at 72 h [7]: > 25 µM | IC50 (Cytochrome P450 3A4 [8]): > 20 µM | EC50 (Toll-like receptor 7 [9]): 0.049 µM

CCCCNc1nc(N)nc2cnn(Cc3ccc(CNC4CCC4)cc3OC)c12
IC50 (Cytochrome P450 2C8): > 20 µM | remaining at 10 min, 0.5 µM [2]: 45% | IC50 (Cytochrome P450 2D6): 1.12 µM | IC50 (Cytochrome P450 2C19): > 20 µM | IC50 (Cytochrome P450 2C9): > 20 µM | IC50 [3]: 24 µM | IC50 (Cytochrome P450 3A4 [4]): 8.14 µM | remaining at 10 min, 0.5 µM [6]: 3% | IC50 (Cytochrome P450 1A2): > 20 µM | IC50 at 72 h [7]: 15 µM | IC50 (Cytochrome P450 3A4 [8]): 14.2 µM
